From ChEMBL document CHEMBL4138123, “Design, synthesis and biological evaluation of novel pyrazolochalcones as potential modulators of PI3K/Akt/mTOR pathway and inducers of apoptosis in breast cancer cells” (Eur J Med Chem, 2017)

How the values were obtained:
Assay type in all cases: functional
[1] = system: SF-539; assay: Cytotoxicity against human SF539 cells assessed as cell growth at 1 uM after 48 hrs by sulforhodamine B assay relative to control; conditions: SF-539, 48 h, read-out: Activity
[2] = system: HL-60(TB); assay: Cytotoxicity against human HL-60(TB) cells assessed as cell growth at 1 uM after 48 hrs by sulforhodamine B assay relative to control; conditions: HL-60, 48 h, read-out: Activity
[3] = system: MDA-MB-231; assay: Cytotoxicity against human MDA-MB-231 cells assessed as cell growth at 100 uM after 48 hrs by sulforhodamine B assay relative to control; conditions: MDA-MB-231, 48 h, read-out: Activity
[4] = system: HOP-62; assay: Cytotoxicity against human HOP62 cells assessed as cell growth at 100 uM after 48 hrs by sulforhodamine B assay relative to control; conditions: HOP-62, 48 h, read-out: Activity
[5] = system: SF-268; assay: Cytotoxicity against human SF268 cells assessed as cell growth at 10 uM after 48 hrs by sulforhodamine B assay relative to control; conditions: SF-268, 48 h, read-out: Activity
[6] = system: SK-MEL-28; assay: Cytotoxicity against human SK-MEL-28 cells assessed as cell growth at 0.01 uM after 48 hrs by sulforhodamine B assay relative to control; conditions: SK-MEL-28, 48 h, read-out: Activity
[7] = system: DU-145; assay: Cytotoxicity against human DU145 cells assessed as cell growth at 0.1 uM after 48 hrs by sulforhodamine B assay relative to control; conditions: DU-145, 48 h, read-out: Activity
[8] = system: SF-539; assay: Cytotoxicity against human SF539 cells assessed as cell growth at 10 uM after 48 hrs by sulforhodamine B assay relative to control; conditions: SF-539, 48 h, read-out: Activity
[9] = system: MDA-MB-435; assay: Cytotoxicity against human MDA-MB-435 cells assessed as cell growth at 100 uM after 48 hrs by sulforhodamine B assay relative to control; conditions: MDA-MB-435, 48 h, read-out: Activity
[10] = system: NCI-H522; assay: Cytotoxicity against human NCI-H522 cells assessed as cell growth at 1 uM after 48 hrs by sulforhodamine B assay relative to control; conditions: NCI-H522, 48 h, read-out: Activity
[11] = system: SK-MEL-5; assay: Cytotoxicity against human SK-MEL-5 cells assessed as growth inhibition after 48 hrs by sulforhodamine B assay; conditions: SK-MEL-5, 48 h
[12] = system: UACC-62; assay: Cytotoxicity against human UACC62 cells assessed as cell growth at 1 uM after 48 hrs by sulforhodamine B assay relative to control; conditions: UACC-62, 48 h, read-out: Activity
[13] = system: Hs-578T; assay: Cytotoxicity against human Hs 578T cells assessed as cell growth at 0.1 uM after 48 hrs by sulforhodamine B assay relative to control; conditions: read-out: Activity
[14] = system: HT-29; assay: Cytotoxicity against human HT-29 cells assessed as cell growth at 0.01 uM after 48 hrs by sulforhodamine B assay relative to control; conditions: HT-29, 48 h, read-out: Activity
[15] = system: SF-268; assay: Cytotoxicity against human SF268 cells assessed as cell growth at 100 uM after 48 hrs by sulforhodamine B assay relative to control; conditions: SF-268, 48 h, read-out: Activity
[16] = system: MDA-MB-231; assay: Cytotoxicity against human MDA-MB-231 cells assessed as cell growth at 0.1 uM after 48 hrs by sulforhodamine B assay relative to control; conditions: MDA-MB-231, 48 h, read-out: Activity
[17] = system: RXF 393; assay: Cytotoxicity against human RXF393 cells assessed as cell growth at 0.01 uM after 48 hrs by sulforhodamine B assay relative to control; conditions: RXF 393, 48 h, read-out: Activity
[18] = system: OVCAR-4; assay: Cytotoxicity against human OVCAR4 cells assessed as cell growth at 10 uM after 48 hrs by sulforhodamine B assay relative to control; conditions: OVCAR-4, 48 h, read-out: Activity
[19] = system: MDA-MB-468; assay: Cytotoxicity against human MDA-MB-468 cells assessed as cell growth at 0.01 uM after 48 hrs by sulforhodamine B assay relative to control; conditions: MDA-MB-468, 48 h, read-out: Activity
[20] = system: ACHN; assay: Cytotoxicity against human ACHN cells assessed as cell growth at 0.01 uM after 48 hrs by sulforhodamine B assay relative to control; conditions: read-out: Activity
[21] = system: OVCAR-8; assay: Cytotoxicity against human OVCAR8 cells assessed as cell growth at 0.1 uM after 48 hrs by sulforhodamine B assay relative to control; conditions: OVCAR-8, 48 h, read-out: Activity
[22] = system: MDA-MB-468; assay: Cytotoxicity against human MDA-MB-468 cells assessed as cell growth at 100 uM after 48 hrs by sulforhodamine B assay relative to control; conditions: MDA-MB-468, 48 h, read-out: Activity
[23] = system: SF-268; assay: Cytotoxicity against human SF268 cells assessed as cell growth at 1 uM after 48 hrs by sulforhodamine B assay relative to control; conditions: SF-268, 48 h, read-out: Activity
[24] = system: RPMI-8226; assay: Cytotoxicity against human RPMI8226 cells assessed as cell growth at 0.1 uM after 48 hrs by sulforhodamine B assay relative to control; conditions: RPMI-8226, 48 h, read-out: Activity
[25] = system: HOP-62; assay: Cytotoxicity against human HOP62 cells assessed as cell growth at 0.1 uM after 48 hrs by sulforhodamine B assay relative to control; conditions: HOP-62, 48 h, read-out: Activity
[26] = system: HT-29; assay: Cytotoxicity against human HT-29 cells assessed as growth inhibition after 48 hrs by sulforhodamine B assay; conditions: HT-29, 48 h
[27] = system: Malme-3M; assay: Cytotoxicity against human MALME-3M cells assessed as cell growth at 1 uM after 48 hrs by sulforhodamine B assay relative to control; conditions: read-out: Activity
[28] = system: K562; assay: Cytotoxicity against human K562 cells assessed as growth inhibition after 48 hrs by sulforhodamine B assay; conditions: K562, 48 h
[29] = system: MDA-MB-231; assay: Cytotoxicity against human MDA-MB-231 cells assessed as growth inhibition after 48 hrs by sulforhodamine B assay; conditions: MDA-MB-231, 48 h
[30] = system: HCC 2998; assay: Cytotoxicity against human HCC2998 cells assessed as cell growth at 100 uM after 48 hrs by sulforhodamine B assay relative to control; conditions: HCC 2998, 48 h, read-out: Activity
[31] = system: MDA-MB-231; assay: Cytotoxicity against human MDA-MB-231 cells assessed as cell growth at 10 uM after 48 hrs by sulforhodamine B assay relative to control; conditions: MDA-MB-231, 48 h, read-out: Activity
[32] = system: M14; assay: Cytotoxicity against human M14 cells assessed as cell growth at 1 uM after 48 hrs by sulforhodamine B assay relative to control; conditions: M14, 48 h, read-out: Activity
[33] = system: UACC-62; assay: Cytotoxicity against human UACC62 cells assessed as cell growth at 10 uM after 48 hrs by sulforhodamine B assay relative to control; conditions: UACC-62, 48 h, read-out: Activity
[34] = system: NCI/ADR-RES; assay: Cytotoxicity against human NCI/ADR-RES cells assessed as cell growth at 10 uM after 48 hrs by sulforhodamine B assay relative to control; conditions: read-out: Activity
[35] = system: SW-620; assay: Cytotoxicity against human SW620 cells assessed as cell growth at 1 uM after 48 hrs by sulforhodamine B assay relative to control; conditions: SW-620, 48 h, read-out: Activity
[36] = system: A549; assay: Cytotoxicity against human A549/ATCC cells assessed as cell growth at 10 uM after 48 hrs by sulforhodamine B assay relative to control; conditions: A549, 48 h, read-out: Activity

COc1ccc(-c2cc(/C=C/C(=O)c3cc(OC)c(OC)c(OC)c3)[nH]n2)cc1OC
growth at 1 µM [1]: 17%
growth at 1 µM [2]: 64%
growth at 100 µM [3]: -71%
growth at 100 µM [4]: -84%
growth at 10 µM [5]: -56%
growth at 0.01 µM [6]: 95%
growth at 0.1 µM [7]: 103%
growth at 10 µM [8]: -85%
growth at 100 µM [9]: -78%
growth at 1 µM [10]: 71%
GI50 [11]: 1.58 µM
LC50 (concentration killing 50% of cells) [11]: 5.44 µM
TGI [11]: 2.93 µM
growth at 1 µM [12]: 88%
growth at 0.1 µM [13]: 97%
growth at 0.01 µM [14]: 101%
growth at 100 µM [15]: -72%
growth at 0.1 µM [16]: 93%
growth at 0.01 µM [17]: 103%
growth at 10 µM [18]: -11%
growth at 0.01 µM [19]: 98%
growth at 0.01 µM [20]: 95%
growth at 0.1 µM [21]: 100%
growth at 100 µM [22]: -58%
growth at 1 µM [23]: 81%
growth at 0.1 µM [24]: 85%
growth at 0.1 µM [25]: 80%
GI50 [26]: 1.3 µM
LC50 [26]: 5.75 µM
TGI [26]: 2.73 µM
growth at 1 µM [27]: 93%
GI50 [28]: 0.73 µM
LC50 (concentration killing 50% of cells) [28]: > 100 µM
TGI [28]: 9.71 µM
GI50 [29]: 2.02 µM
LC50 [29]: 55.4 µM
TGI [29]: 13.5 µM
growth at 100 µM [30]: -82%
growth at 10 µM [31]: 11%
growth at 1 µM [32]: 91%
growth at 10 µM [33]: -61%
growth at 10 µM [34]: 9%
growth at 1 µM [35]: 70%
growth at 10 µM [36]: -2%

COc1ccc(C(=O)/C=C/c2cc(-c3ccc4c(c3)OCO4)n[nH]2)cc1OC
growth at 1 µM [1]: 88%
growth at 1 µM [2]: 89%
growth at 100 µM [3]: -86%
growth at 100 µM [4]: -80%
growth at 10 µM [5]: -12%
growth at 0.01 µM [6]: 99%
growth at 0.1 µM [7]: 100%
growth at 10 µM [8]: -47%
growth at 100 µM [9]: -50%
growth at 1 µM [10]: 84%
LC50 (concentration killing 50% of cells) [11]: 46.4 µM
TGI [11]: 19.9 µM
growth at 1 µM [12]: 98%
growth at 0.1 µM [13]: 92%
growth at 0.01 µM [14]: 93%
growth at 100 µM [15]: -74%
growth at 0.1 µM [16]: 96%
growth at 0.01 µM [17]: 98%
growth at 10 µM [18]: 18%
growth at 0.01 µM [19]: 92%
growth at 0.01 µM [20]: 101%
growth at 0.1 µM [21]: 98%
growth at 100 µM [22]: -85%
growth at 1 µM [23]: 92%
growth at 0.1 µM [24]: 97%
growth at 0.1 µM [25]: 99%
LC50 [26]: > 100 µM
TGI [26]: 11.3 µM
growth at 1 µM [27]: 106%
LC50 (concentration killing 50% of cells) [28]: > 100 µM
TGI [28]: 16.7 µM
GI50 [29]: 2.44 µM
LC50 [29]: 31.7 µM
TGI [29]: 7.39 µM
growth at 100 µM [30]: -86%
growth at 10 µM [31]: -14%
growth at 1 µM [32]: 100%
growth at 10 µM [33]: 19%
growth at 1 µM [35]: 92%
growth at 10 µM [36]: 3%
